Read-outs that look alike come from different tables or passages of the source.
Target: canine TRPM8 (Canis lupus familiaris, UniProt Q1A7N1)
Test: In Vitro Canine TRPM8 Functional Assay (Ca2+ fluorescence, icilin activation)
Type: cell-based
Conditions: for inhibition at 0.2 µM: read-out: % Inh @ 0.2; for IC50: read-out: IC50; for inhibition at 0.5 µM: compound at 0.5 μM, read-out: % Inh @ 0.5
Method in brief: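 Eight-point dose-response curves, each point averaging quadruplicate wells, gave EC50 or IC50. Canine TRPM8-expressing HEK293 cells, dye-loaded (Calcium 3), were pre-exposed 5 min to compound, then challenged with icilin at roughly EC80; intracellular Ca2+ read by FLIPR or FDSS fluorescence.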

[1] = compound at 0.2 μM, canine TRPM8, icilin activation
[2] = HEK293 cells stably expressing canine TRPM8, icilin activation, eight-point dose-response
[3] = canine TRPM8, icilin activation
[4] = 0.2 μM compound, HEK293 cells stably expressing canine TRPM8, icilin activation

Chain of canine TRPM8 (Q1A7N1 1-1104): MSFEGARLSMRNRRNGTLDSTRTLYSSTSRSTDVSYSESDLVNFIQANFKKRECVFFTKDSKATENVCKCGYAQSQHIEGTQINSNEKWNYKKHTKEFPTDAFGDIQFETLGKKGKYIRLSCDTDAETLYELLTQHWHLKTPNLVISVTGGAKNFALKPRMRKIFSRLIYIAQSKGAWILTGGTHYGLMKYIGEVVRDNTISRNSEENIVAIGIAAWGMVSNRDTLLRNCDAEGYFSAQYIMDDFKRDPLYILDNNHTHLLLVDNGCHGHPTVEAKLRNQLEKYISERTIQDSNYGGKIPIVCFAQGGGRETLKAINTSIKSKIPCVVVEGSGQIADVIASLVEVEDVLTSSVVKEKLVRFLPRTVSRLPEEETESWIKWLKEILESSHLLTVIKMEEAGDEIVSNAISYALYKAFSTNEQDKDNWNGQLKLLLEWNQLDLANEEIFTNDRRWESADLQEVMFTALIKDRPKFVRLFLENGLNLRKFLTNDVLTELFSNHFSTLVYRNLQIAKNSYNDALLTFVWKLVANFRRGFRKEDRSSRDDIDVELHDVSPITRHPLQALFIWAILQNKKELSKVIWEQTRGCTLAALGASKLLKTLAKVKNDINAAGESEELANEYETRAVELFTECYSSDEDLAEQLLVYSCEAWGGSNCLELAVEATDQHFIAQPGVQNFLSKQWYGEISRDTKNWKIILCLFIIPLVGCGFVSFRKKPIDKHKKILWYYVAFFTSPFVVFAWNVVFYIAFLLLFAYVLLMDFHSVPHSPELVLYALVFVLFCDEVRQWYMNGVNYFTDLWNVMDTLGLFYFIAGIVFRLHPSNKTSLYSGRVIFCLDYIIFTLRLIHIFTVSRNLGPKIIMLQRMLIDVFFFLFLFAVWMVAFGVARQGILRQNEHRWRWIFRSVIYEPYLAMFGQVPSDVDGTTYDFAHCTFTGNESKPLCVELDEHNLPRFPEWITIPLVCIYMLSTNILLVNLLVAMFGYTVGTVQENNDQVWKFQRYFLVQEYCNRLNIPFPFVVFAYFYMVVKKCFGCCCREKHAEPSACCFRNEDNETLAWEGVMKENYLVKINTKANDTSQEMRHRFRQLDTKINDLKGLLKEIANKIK

| Compound | inhibition at 0.2 µM [1] [%] | IC50 [2] [nM] | further results |
| --- | --- | --- | --- |
| N#Cc1ccc(S(=O)(=O)N(Cc2ccc(F)c(C(F)(F)F)c2)c2cc3ccccc3s2)cc1 [Compound 411, N-(Benzo[b]thiophen-2-yl)-N-(4-fluoro-3-trifluoromethyl-benzyl)-4-cyano-benzenesulfonamide] | 43 |  |  |
| COC(=O)c1ccc(S(=O)(=O)N(CCCC(F)(F)F)c2sc3cc(F)ccc3c2C)cc1 [Compound 412, N-(6-Fluoro-3-methyl-benzo[b]thiophen-2-yl)-N-(4,4,4-trifluoro-butyl)-4-carbomethoxybenzenesulfonamide] | 13 |  |  |
| Cc1c(N(CCF)S(=O)(=O)c2ccccc2)sc2ccccc12 [Compound 818, N-(2-Fluoro-ethyl)-N-(3-methyl-benzo[b]thiophen-2-yl)-benzenesulfonamide] |  |  | inhibition at 0.2 µM [4]: 92%; IC50 (HEK293 cells stably expressing canine TRPM8, icilin activation, average of two or more determinations): 62 nM |
| CCCS(=O)(=O)N(Cc1ccc(F)c(F)c1)c1sc2ccccc2c1Br [Compound 153, N-(3-Bromo-benzo[b]thiophen-2-yl)-N-(3,4-difluoro-benzyl)-propane-1-sulfonamide] |  | 18.8 | inhibition at 0.5 µM [3]: 97% |
| CCCCN(C1=C(Br)c2ccccc2S1(=O)=O)S(=O)(=O)c1ccc(C(=O)OC)cc1 [Compound 433, N-(3-Bromo-1,1-dioxo-benzo[b]thiophen-2-yl)-N-(butyl)-4-carbomethoxy-benzenesulfonamide] | 93 | 33 |  |
| CCS(=O)(=O)N(Cc1ccc(F)c(C(F)(F)F)c1)c1sc2ccccc2c1CN1CCCC1 [Compound 349, N-(4-Fluoro-3-trifluoromethyl-benzyl)-N-(3-pyrrolidin-1-yl-methyl-benzo[b]thiophen-2-yl)-ethanesulfonamide] |  |  | % Inh @ 0.2 (μM) [1]: 42% |
| Cc1c(N(Cc2ccc(F)c(C(F)(F)F)c2)S(=O)(=O)c2ccc3c(c2)CN(C)CC3)sc2ccccc12 [Compound 767, 2-Methyl-N-(4-fluoro-3-trifluoromethyl-benzyl)-N-(3-methyl-benzo[b]thiophen-2-yl)-1,2,3,4-tetrahydroisoquinolin-7-yl-sulfonamide] | 77 | 89.2 |  |
| CS(=O)(=O)N(Cc1ccc(F)c(F)c1)c1cc2ccccc2s1 [Compound 34, N-Benzo[b]thiophen-2-yl-N-(3,4-difluoro-benzyl)-methanesulfonamide] |  | 184 | inhibition at 0.5 µM [3]: 98% |
| NS(=O)(=O)N(CC1CC1)c1sc2ccccc2c1Br [Compound 303, N-(3-Bromo-benzo[b]thiophen-2-yl)-N-(cyclopropylmethyl)-sulfamide] | 56 |  |  |
| Cc1c(N(CCCCC(F)(F)F)S(=O)(=O)c2ccc(-c3nnn[nH]3)nc2)sc2ccccc12 [Compound 806] |  |  | inhibition at 0.2 µM [4]: 102% |
| CS(=O)(=O)Nc1ccc(S(=O)(=O)N(CCCCC(F)(F)F)c2sc3ccccc3c2Br)cc1 [Compound 680, N-(3-Bromo-benzo[b]thiophen-2-yl)-4-methanesulfonylamino-N-(5,5,5-trifluoro-pentyl)-benzenesulfonamide] | 96.2 | 56.1 |  |
| O=S(=O)(c1ccccc1)N(Cc1ccccn1)c1cc2ccccc2s1 [Compound 52, N-(Benzo[b]thiophen-2-yl)-N-(pyridin-2-ylmethyl)-benzenesulfonamide] |  | 116 | inhibition at 0.5 µM [3]: 99% |
| CS(=O)(=O)Nc1ccc(S(=O)(=O)N(CCC(F)(F)F)c2sc3ccccc3c2Cl)cc1 [Compound 676, N-(3-Chloro-benzo[b]thiophen-2-yl)-4-methanesulfonylamino-N-(3,3,3-trifluoro-propyl)-benzenesulfonamide] | 102 | 25.9 |  |
| CN(C)S(=O)(=O)c1cccc(S(=O)(=O)N(CCC(F)(F)F)c2cc3ccccc3s2)c1 [Compound 461, N-(Benzo[b]thiophen-2-yl)-N-(3,3,3-trifluoro-propyl)-3-dimethylsulfamoyl-benzenesulfonamide] | 30 |  |  |
| Cc1c(N(Cc2ccc(OC(F)(F)F)cc2)S(=O)(=O)c2ccc(-n3ccnc3CN(C)C)cc2)sc2ccccc12 [Compound 701, 4-(2-Dimethylaminomethyl-imidazol-1-yl)-N-(3-methyl-benzo[b]thiophen-2-yl)-N-(4-trifluoromethoxy-benzyl)-benzenesulfonamide] | 95 | 32.5 |  |

More lines, in order of falling IC50 [2], values ahead:

| inhibition at 0.2 µM [1] [%] | IC50 [2] [nM] | Compound | further results |
| --- | --- | --- | --- |
| 101 | 17.3 | Cc1c(N(CCC2CC2)S(=O)(=O)c2ccc(N3CCOCC3)cc2)sc2ccccc12 [Compound 741, N-(3-Methyl-benzo[b]thiophen-2-yl)-N-(cyclopropyl-ethyl)-4-morpholino-benzenesulfonamide] |  |
| 101 | 16.1 | Cc1c(N(CCC(F)(F)F)S(=O)(=O)c2ccc(-c3noc(=O)[nH]3)cc2)sc2ccccc12 [Compound 599, N-(3-Methyl-benzo[b]thiophen-2-yl)-N-(3,3,3-trifluoro-propyl)-4-(5-oxo-4,5-dihydro-[1,2,4]oxadiazol-3-yl)-benzenesulfonamide] |  |
|  | 10 | O=S(=O)(c1ccccc1)N(Cc1ccc(C(F)(F)F)cc1)c1sc2ccccc2c1Cl [Compound 8, N-(3-Chloro-benzo[b]thiophen-2-yl)-N-(4-trifluoromethyl-benzyl)-benzenesulfonamide] | inhibition at 0.5 µM [3]: 99% |
| 102 | 8.8 | O=S(=O)(c1ccccc1)N(CCCc1ccccc1)c1sc2ccccc2c1Br [Compound 246, N-(3-Bromo-benzo[b]thiophen-2-yl)-N-(3-phenyl-propyl)-benzenesulfonamide] |  |
|  | 8.8 | O=S(=O)(c1ccccc1)N(Cc1ccc(F)c(F)c1)c1sc2ccccc2c1Cl [Compound 24, N-(3-Chloro-benzo[b]thiophen-2-yl)-N-(3,4-difluoro-benzyl)-benzenesulfonamide] | inhibition at 0.5 µM [3]: 100% |
| 98 | 8.3 | CCCCCCN(c1sc2ccccc2c1Br)S(=O)(=O)c1ccccc1 [Compound 248, N-(3-Bromo-benzo[b]thiophen-2-yl)-N-(hexyl)-benzenesulfonamide] |  |
| 95 | 5 | CCCCCCN(c1sc2ccccc2c1Br)S(=O)(=O)c1ccc(C(=O)O)cc1 [Compound 393, N-(3-Bromo-benzo[b]thiophen-2-yl)-N-(hexyl)-4-carboxy-benzenesulfonamide] |  |
| 105 | 1.8 | Cc1c(N(Cc2ccc(F)c(C(F)(F)F)c2)S(=O)(=O)c2ccc(-c3noc(=O)[nH]3)cc2)sc2ccccc12 [Compound 544, N-(3-Methyl-benzo[b]thiophen-2-yl)-N-(4-fluoro-3-trifluoromethyl-benzyl)-4-(5-oxo-4,5-dihydro-[1,2,4]oxadiazol-3-yl)-benzenesulfonamide] |  |
| 102 | 1 | Cc1c(N(Cc2ccc(SC(F)(F)F)cc2)S(=O)(=O)c2ccc(C(=O)O)cc2)sc2ccccc12 [Compound 526, N-(3-Methyl-benzo[b]thiophen-2-yl)-N-(4-trifluoromethylsulfanyl-benzyl)-4-carboxy-benzenesulfonamide] |  |
| 97 | 0.9 | O=S(=O)(c1ccccc1)N(CC12CC3CC(CC(C3)C1)C2)c1sc2ccccc2c1Br [Compound 249, N-(Adamant-1-ylmethyl)-N-(3-bromo-benzo[b]thiophen-2-yl)-benzenesulfonamide] |  |
